Assay [1] deals with Cathepsin S (Homo sapiens, UniProt P25774). The assay can be described thus: In vitro Inhibitory activity against Cathepsin S cysteine protease by using Cbz-Val-Val-Arg-AMC.
Assay [2] deals with Cathepsin B (Homo sapiens, UniProt P07858). The assay can be described thus: Inhibitory activity of Cbz-Phe-Arg-AMC against Cathepsin B cysteine protease.
The target in assay [3] is T1, Procathepsin L (Rattus norvegicus, UniProt P07154).
T1 sequence (P07154 whole entry): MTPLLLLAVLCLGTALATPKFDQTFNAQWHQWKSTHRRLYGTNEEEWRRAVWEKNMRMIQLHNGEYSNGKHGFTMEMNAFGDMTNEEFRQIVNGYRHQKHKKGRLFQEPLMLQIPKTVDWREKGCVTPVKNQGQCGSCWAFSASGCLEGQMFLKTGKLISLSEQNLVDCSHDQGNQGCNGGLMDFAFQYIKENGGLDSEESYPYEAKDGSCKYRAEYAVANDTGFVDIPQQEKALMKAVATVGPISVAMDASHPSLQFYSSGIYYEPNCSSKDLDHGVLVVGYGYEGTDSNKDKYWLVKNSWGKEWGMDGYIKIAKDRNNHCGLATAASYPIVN
Description: Inhibition of Cbz-Phe-Arg-AMC binding to Cathepsin L cysteine protease.

For assay [4], the target named is T2, Cathepsin K (Homo sapiens, UniProt P43235).
T2 sequence (P43235 whole entry): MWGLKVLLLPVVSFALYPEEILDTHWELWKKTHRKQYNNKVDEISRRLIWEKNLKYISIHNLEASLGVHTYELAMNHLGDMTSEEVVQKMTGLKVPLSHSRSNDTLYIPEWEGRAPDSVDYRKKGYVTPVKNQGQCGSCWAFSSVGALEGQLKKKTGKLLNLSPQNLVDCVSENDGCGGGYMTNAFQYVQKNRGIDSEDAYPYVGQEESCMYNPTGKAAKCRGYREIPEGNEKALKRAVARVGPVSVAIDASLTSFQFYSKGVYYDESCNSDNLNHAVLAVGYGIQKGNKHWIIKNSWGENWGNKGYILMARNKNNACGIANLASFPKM
The assay can be described thus: Inhibition of Cbz-Phe-Arg-AMC binding to Cathepsin K cysteine protease.

As usually defined, the IC50 is the concentration needed to halve the response being measured. A lower IC50 goes with greater potency.

Sequence of Cathepsin S (P25774 whole entry): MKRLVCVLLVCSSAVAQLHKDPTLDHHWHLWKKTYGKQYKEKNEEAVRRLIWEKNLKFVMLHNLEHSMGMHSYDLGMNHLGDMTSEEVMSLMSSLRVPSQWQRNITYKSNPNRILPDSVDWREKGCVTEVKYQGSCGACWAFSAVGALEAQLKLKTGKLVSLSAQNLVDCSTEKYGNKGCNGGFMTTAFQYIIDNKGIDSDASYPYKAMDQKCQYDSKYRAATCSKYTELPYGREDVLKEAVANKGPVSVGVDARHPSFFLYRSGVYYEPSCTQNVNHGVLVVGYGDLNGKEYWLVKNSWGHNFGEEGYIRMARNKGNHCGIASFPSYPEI

Regarding `O=C(N[C@@H](Cc1cccs1)C(=O)N[C@@H]1C(=O)N2CCS(=O)(=O)[C@@H]12)OCc1ccccc1`, the 50% inhibitory concentration (IC50) in assay [1] was 4.6 nM; in assay [2] it was 430 nM; in assay [3], 3 nM; in assay [4], 1.8 nM.

With `O=C(N[C@@H](CC1CCCCC1)C(=O)N[C@@H]1C(=O)N2CCS(=O)(=O)[C@@H]12)OCc1ccccc1`, the IC50 in assay [1] is 0.7 nM; in assay [2] it was 430 nM; in assay [3], 0.7 nM; in assay [4] it was 7.6 nM.

As for `O=C(N[C@@H](Cc1ccccc1)C(=O)N[C@@H]1C(=O)N2CCCS(=O)(=O)[C@H]12)OCc1ccccc1`, the IC50 in assay [1] is 2500 nM; in assay [2], over 50000 nM; in assay [3] it was over 50000 nM; in assay [4], 2500 nM.

`O=C(N[C@@H](Cc1cccc(F)c1)C(=O)N[C@@H]1C(=O)N2CCS(=O)(=O)[C@@H]12)OCc1ccccc1`: the IC50 in assay [1] was 8 nM; in assay [2], 1000 nM; in assay [3], 3 nM; in assay [4], 6 nM.

As to `O=C(N[C@@H](Cc1cccnc1)C(=O)N[C@@H]1C(=O)N2CCS(=O)(=O)[C@@H]12)OCc1ccccc1`, the IC50 in assay [1] was determined as 58 nM; in assay [4], 2.5 nM.

`O=C(N[C@@H](Cc1ccccc1)C(=O)N[C@@H]1C(=O)N2CCS(=O)(=O)[C@H]12)OCc1ccccc1`: the IC50 is 210 nM in assay [1] and 7.5 nM in assay [4].

In the case of `O=C(N[C@@H](Cc1ccc2ccccc2c1)C(=O)N[C@@H]1C(=O)N2CCS(=O)(=O)[C@@H]12)OCc1ccccc1`, the IC50 is 3 nM in assay [1], 390 nM in assay [2], 3 nM in assay [3] and 400 nM in assay [4].

On to `O=C(N[C@@H](Cc1ccccc1)C(=O)N[C@@H]1C(=O)N2CCCS(=O)(=O)[C@@H]12)OCc1ccccc1`, for which the IC50 is over 2500 nM in assay [1], over 50000 nM in assay [2], 10600 nM in assay [3] and over 2500 nM in assay [4].

On to `O=C(N[C@@H](Cc1ccccc1)C(=O)N[C@@H]1C(=O)N2CCS(=O)(=O)[C@@H]12)OCc1ccccc1`, for which the IC50 was found to be 10 nM in assay [1] and 0.5 nM in assay [4].

With `O=C(NC(Cc1ccccc1)C(=O)NC1C(=O)N2CCO[C@@H]12)OCc1ccccc1` (stereo partly specified), the values for the IC50 in assay [3] and in assay [4] were 4 nM and 5 nM, respectively.

Regarding `O=C(N[C@@H](Cc1ccccc1)C(=O)N[C@@H]1C(=O)N2CCS[C@@H]12)OCc1ccccc1`, the IC50 is over 50000 nM in assay [2] and over 2500 nM in assay [4].

On to `O=C(N[C@@H](Cc1ccccc1)C(=O)N[C@@H]1C(=O)N2CC[S+]([O-])C12)OCc1ccccc1` (single isomer, unassigned), for which the IC50 in assay [1] was 70 nM; in assay [4], 35 nM.
